Laboratory results published in article PMC4425353 (Science (New York, N.Y.), 2015).

What was measured:
LBP-8 = target: T1, LBP-8 (Caenorhabditis elegans, UniProt O02324); experiment: fluorescence displacement of […],8-ANS; assay type: binding
T1 sequence (O02324 1-137): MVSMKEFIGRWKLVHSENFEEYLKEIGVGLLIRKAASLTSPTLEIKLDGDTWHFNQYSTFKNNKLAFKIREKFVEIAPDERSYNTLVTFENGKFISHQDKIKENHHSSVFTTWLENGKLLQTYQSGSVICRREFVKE

NHR-80 = target: T2, NHR-80 (Caenorhabditis elegans, UniProt Q8ITW8); experiment: intrinsic fluorescence quenching of GST-NHR-80 with increasing OEA; assay type: binding
T2 sequence (Q8ITW8 1-504): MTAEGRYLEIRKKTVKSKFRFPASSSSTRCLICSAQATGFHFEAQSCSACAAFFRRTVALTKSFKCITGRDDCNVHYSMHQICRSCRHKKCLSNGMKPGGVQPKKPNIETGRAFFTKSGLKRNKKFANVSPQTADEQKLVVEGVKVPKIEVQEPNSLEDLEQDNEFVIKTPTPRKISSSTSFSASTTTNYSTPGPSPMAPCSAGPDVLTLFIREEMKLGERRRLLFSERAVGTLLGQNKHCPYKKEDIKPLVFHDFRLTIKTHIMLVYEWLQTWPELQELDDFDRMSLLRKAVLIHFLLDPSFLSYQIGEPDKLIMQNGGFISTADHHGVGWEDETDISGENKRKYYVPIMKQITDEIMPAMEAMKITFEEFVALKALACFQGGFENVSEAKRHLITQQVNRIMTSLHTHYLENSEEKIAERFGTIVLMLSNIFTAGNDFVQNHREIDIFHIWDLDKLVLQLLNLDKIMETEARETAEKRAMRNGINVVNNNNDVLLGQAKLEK

Kd (NHR-80) | SMILES | fluorescence displacement of 1,8-ANS (LBP-8)
– | CC/C=C\C/C=C\C/C=C\C/C=C\CCCCCCC(=O)O [ω-3 AA, ω-3 arachidonic acid] | In fluorescence-based binding assays, all four lipids bound to LBP-8
7.84 µM | CCCCCCCC/C=C\CCCCCCCC(=O)NCCO [OEA, oleoylethanolamide] | –
– | CCCCC/C=C\C/C=C\C/C=C\CCCCCCC(=O)O [DGLA, dihomo-γ-linolenic acid] | In fluorescence-based binding assays, all four lipids bound to LBP-8
– | CCCCC/C=C\C/C=C\C/C=C\C/C=C\CCCC(=O)O [AA, arachidonic acid] | In fluorescence-based binding assays, all four lipids bound to LBP-8
